Like-named read-outs stand apart in the source and are kept apart here.
Key:
[1] = system: Cu2+–Aβ42 species in Neuro2A cells; assay: Cu2+-Aβ42-induced toxicity in Neuro2A cells (Alamar Blue); type: cell-based, mouse; details: [Aβ42] = [Cu2+] = 40 μM, compound 10 μM (ZY-12-OMe 5 μM), 40 h
Protocol: As mentioned above, compounds that are not cytotoxic at 10 μM, including ZY-12-MT, ZY-15-MT, ZY-15-OMe, ZY-17-MT, ZY-5-MT, ZY-5-DT, ZY-5-OMe, and ZY-12-OMe, were chosen for this study. Firstly, during the control studies, we observed that monomeric Aβ42 led to negligible neurotoxicity. Nevertheless, in the presence of both Cu^2+ and monomeric Aβ42, there was a significant cell death, which is likely due to the Cu^2+ associated neurotoxic Aβ42 oligomers formation.[46] […] According to the docking results, ZY-12-MT, ZY-15-OMe, ZY-15-MT, and ZY-5-OMe interact with Aβ42 tetramers mainly through residues His6, Asp7, Tyr10 (via hydrogen bonds), and Tyr10 (via π–π interactions). Some reports have also shown that His6, Asp7, and Tyr10 are potentially involved in the Cu–Aβ interactions, which explains why the compounds are able to attenuate the Cu–Aβ toxicity.[48]
Fig. 9 Cell viability results upon incubation of Neuro2A cells with monomeric Aβ42 in the presence or absence of metal ions and amphiphilic compounds. Concentrations: [Aβ42] = 40 μM, [Cu^2+] = 40 μM, [ZY-12-MT] = [ZY-15-OMe] = [ZY-15-MT] = [ZY-17-MT] = [ZY-5-OMe] = [ZY-5-MT] = [ZY-5-DT] = 10 μM, [ZY-12-OMe] = 5 μM. The error bars represent the standard deviation from five independent experiments, and the statistical analysis was evaluated according to one-way ANOVA (*p < 0.05).
Alamar Blue assay was chosen for the cytotoxicity studies.3 Mouse neuroblastoma Neuro2A (N2A) cells were grown with DMEM/10% FBS in a petri dish at 37 °C in a humidified atmosphere with 5% CO2. Then N2A cells were seeded in a 96-well plate (1.0 × 10^4/well). After 24 h incubation, cell media was changed to DMEM/N-2, and N2A cells were incubated for another 1 h. […]
(§1) For the Cu2+-Aβ-induced toxicity studies, cells were treated monomeric Aβ42, Cu2+, monomeric Aβ42 + Cu2+, and monomeric Aβ42 + Cu2+ + compounds, monomeric Aβ42 + Cu2+ + copper chelators (Me2HTACN or Me3TACN), respectively. After 40 h incubation, Alamar Blue solution (10 μL) was added, and the cells were incubated for another 90 min at 37 °C. The fluorescence intensity of each well was measured at 590 nm (excitation wavelength = 560 nm). […]
10. The effect of copper chelators on Cu2+-Aβ42 neurotoxicity
Figure S8. Cell viability results upon incubation of Neuro2A cells with 10 μM copper chelators (Me2HTACN or Me3TACN) in the presence or absence of 40 μM (Aβ42 + Cu2+). The error bars represent the standard deviation from five independent experiments, and the statistical analysis was evaluated according to one-way ANOVA. […]

Aβ42 fibrils = biological target: T1, Aβ42 fibrils (Homo sapiens, UniProt P05067); assay: Fluorescence saturation binding assay with Aβ42 fibrils; details: for binding ratio, Fibrils: from cross point between plateau and initial slope
T1 construct: 1 mg of commercial Aβ42 monomer powder (from GL biochem) was dissolved in 1; purchased GL biochem
T1 sequence (P05067 672-713 limits assumed): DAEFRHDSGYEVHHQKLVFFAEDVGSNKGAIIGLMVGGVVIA
Protocol: (§2) Fig. 3 Binding constant measurements of ZY-5-OMe (left), ZY-5-MT (middle), ZY-5-DT (right) with Aβ42 fibrils (top), and oligomers (bottom). The measurements were performed in 10 mM phosphate buffered saline (PBS), pH 7.4. The Kd curves were fitted in GraphPad Prism with one site-specific binding model. Equation: Y = Bmax × X/(Kd + X). [Aβ42 fibrils] = [Aβ42 oligomers] = 5 μM.
(§3) Preparation of the Aβ42 Fibrils and Aβ42 Oligomers
(§4) Aβ42 fibrils: 1 mg of commercial Aβ42 monomer powder (from GL biochem) was dissolved in 1
(§5) mL 1,1,1,3,3,3-hexafluoro-2-propanol (HFIP) at room temperature and incubated for 1h. The
(§6) resulting solution was divided equally into two Eppendorf tubes. The solution in each Eppendorf
(§7) tube containing 0.5 mg Aβ42 monomer was then evaporated overnight and dried by vacuum
(§8) centrifuge to generate monomeric films. 100 μM Aβ42 fibrils solution was prepared by dissolving
(§9) the 0.5 mg monomeric films in 1.1 mL PBS buffer (with final DMSO concentration less than 1%)
(§10) and stiring at 37 °C for 3 days.
(§11) Aβ42 oligomers: The 0.5 mg monomeric films were dissolved in 1.1 mL PBS buffer (with final
(§12) DMSO concentration less than 1%) and incubated at 4 °C overnight. The resulting solution was
(§13) then centrifuged at 3000 rpm for 15 mins to remove the insoluble aggregates. The clear supernatant
(§14) was then used for the following experiments. […]
(§15) In Vitro Saturation Binding Studies with Aβ42 Fibrils and Aβ42 Oligomers
(§16) To a solution of increasing concentrations of compounds, a fixed concentration of the generated
(§17) aggregated Aβ42 fibrils or Aβ42 oligomers solutions (5 to 15 μM) was added to yield a total volume
(§18) of 100 μL. Nonspecific binding was determined without compounds. The mixture was incubated
(§19) for 15 min at room temperature. All fluorescence data were obtained on a SpectraMax M2e plate
(§20) reader (Molecular Devices).

[2] = Log D by octanol-PBS partition assay; type: physicochemical; details: pH 7.4, fluorescence readout
Protocol: In order to confirm that the compounds can also bind to native Aβ species, brain sections collected from 9-month-old 5xFAD transgenic mice have been employed in the fluorescence imaging studies. […] The brain sections were first incubated with our compounds, followed by Congo Red (CR), which is a well-established fluorescent probe that can bind to Aβ plaques.[34] The treated brain sections were then imaged using fluorescence microscope. […] Immunostaining with the CF594-conjugated HJ 3.4 antibody (CF594-HJ3.4) was also performed to confirm that these six compounds can bind to Aβ species specifically in the brain sections (Fig. 5). Moreover, the log D values of the compounds were also measured by octanol-PBS partition assays.[35] […]
The Log D value was measured following a published procedure using slight modifications.4 In general, compounds in 0.5 mL octanol was subjected to partition with 0.5 mL octanol-saturated
PBS. The whole mixture was stirred vigorously for 5 min, and centrifuged at 2,000 rpm for 5 min.
The top octanol layer was separated for later fluorescence measurement. The remaining PBS layer was partitioned with 0.5 mL PBS-saturated octanol, and the second top octanol layer was then separated after vigorous stirring and centrifuging at 2,000 rpm for another 5 min. The two octanol layers’ fluorescence spectra were recorded. The log D value was calculated by the fluorescence intensity ratio at the compounds’ emission wavelength for the above two octanol extractions. […]

Aβ42 oligomers = biological target: T2, Aβ42 oligomers (Homo sapiens, UniProt P05067); assay: Fluorescence saturation binding assay with Aβ42 oligomers; details: for Kd / binding ratio, Oligomers: Aβ42 oligomers; for Kd: 10 mM PBS pH 7.4, one site-specific binding model; for binding ratio, Oligomers: from cross point between plateau and initial slope; for binding preference oligomers vs fibrils (from Kd values): lower Kd for Aβ oligomers than Aβ fibrils
T2 construct: 1 mg of commercial Aβ42 monomer powder (from GL biochem) was dissolved in 1; purchased GL biochem
T2 sequence (P05067 672-713 limits assumed): as above
Protocol: as §2, §3, §4, §5, §6, §7, §8, §9, §10, §11, §12, §13, §14, §15, §16, §17, §18, §19, §20

[3] = Alamar Blue cytotoxicity assay in N2a cells; type: cell-based, mouse; details: mouse, N2a (Neuro2A) neuroblastoma cells, up to 10 μM, 40 h, read-out: cell viability
Protocol: (§21) After confirming these amphiphilic compounds can bind to Aβ species both in vitro and ex vivo, we next investigated whether these compounds could attenuate the toxicity of the Cu–Aβ species, as the Cu^2+ ions were reported to promote the formation of neurotoxic soluble Aβ42 oligomers.[45,46] Firstly, the Alamar Blue cell viability assay was used to measure the cytotoxicity of the compounds at different concentrations ranging from 20 μM to 2 μM in mouse neuroblastoma N2a cells (Fig. 8). […] Considering its high binding affinity to both Aβ fibrils and oligomers, we also further tested its ability to alleviate Cu^2+–Aβ42-induced toxicity. […] The underlying mechanism is unclear, but we propose that these compounds might perform similarly to the toxic oligomers that bind to some cell membrane receptors or insert into the membrane lipids to form porous channels.
(§22) Alamar Blue assay was chosen for the cytotoxicity studies.3 Mouse neuroblastoma Neuro2A (N2A) cells were grown with DMEM/10% FBS in a petri dish at 37 °C in a humidified atmosphere with 5% CO2. Then N2A cells were seeded in a 96-well plate (1.0 × 10^4/well). After 24 h incubation, cell media was changed to DMEM/N-2, and N2A cells were incubated for another 1 h. Then the cells were treated with different concentrations of compounds for 40 h, Alamar Blue solution (10 μL) was added, and the cells were incubated for another 90 min at 37 °C. The fluorescence intensity of each well was measured at 590 nm (excitation wavelength = 560 nm).
as §1

[4] = biological target: T3, Aβ plaques in 5xFAD mice brain sections (Homo sapiens, UniProt P05067); assay: Fluorescence imaging of 5xFAD mouse brain sections, colocalization with Congo Red; details: 9-month-old 5xFAD brain sections; compound 5 μM, Congo red 2.5 μM
T3 construct: aggregated Aβ species were commonly observed in brain sections from 5xFAD transgenic mice; tissue Jackson Laboratories; host or cells: brain sections of 9-month-old 5xFAD transgenic mice
T3 sequence (P05067 672-713 limits assumed): as above
Protocol: In order to confirm that the compounds can also bind to native Aβ species, brain sections collected from 9-month-old 5xFAD transgenic mice have been employed in the fluorescence imaging studies. […] The brain sections were first incubated with our compounds, followed by Congo Red (CR), which is a well-established fluorescent probe that can bind to Aβ plaques.[34] The treated brain sections were then imaged using fluorescence microscope. […] Immunostaining with the CF594-conjugated HJ 3.4 antibody (CF594-HJ3.4) was also performed to confirm that these six compounds can bind to Aβ species specifically in the brain sections (Fig. 5). Moreover, the log D values of the compounds were also measured by octanol-PBS partition assays.[35]
Fig. 4 Fluorescence microscopy images of 5xFAD mice brain sections co-incubated with amphiphilic compounds (top), Congo red (middle) and merged images (bottom, along with the Parson's correlation coefficients R). Concentrations: [amphiphilic compounds] = 5 μM, [Congo red] = 2.5 μM; scale bar: 125 μm. TEXT PRINTED IN THE PICTURE: ZY-5-MT: Merged R= 0.84 | ZY-12-DT: Merged R= 0.52 | ZY-12-OMe: Merged R= 0.77 | ZY-15-OMe: Merged R= 0.77 | ZY-17-DT: Merged R= 0.77 | ZY-17-OMe: Merged R= 0.72 […]
Histological Staining of 5×FAD Mice Brain Sections
5xFAD transgenic mice brain sections were blocked with bovine serum albumin (2% BSA in PBS, pH 7.4, 10 min). Then the mice brain sections were transferred to a PBS solution of the compound and incubated for 1 h. After which, the brain sections were transferred to a PBS solution of Congo Red or antibody HJ 3.4 (Professor David Holtzman, 1 μg/ml) and incubated for another 1 h. Then, the brain sections were treated with BSA again (5 min) followed by washing with PBS (3 × 2 min), DI water (3 × 2 min). Finally, the mice brain sections were mounted with non-fluorescent mounting media, and the images were obtained by using EVOS FL Auto 2. ImageJ Fiji program was used for colocalization analysis and determination of the Pearson’s correlation coefficient. The primary

[5] = system: mouse neuroblastoma N2a cells; assay: Alamar Blue cytotoxicity assay in N2a cells; type: cell-based; details: 2 to 20 μM
Protocol: as §21, §22, §1

[6] = Aβ42 fibrils, 10 mM PBS pH 7.4, one site-specific binding model, read-out: Kd, Fibrils

Row | Structure (SMILES) | Kd (Aβ42 fibrils; [6]) [nM] | binding ratio, Fibrils (Aβ42 fibrils; Aβ42 fibrils) | logD [2] | Kd (Aβ42 oligomers) [nM] | binding ratio, Oligomers (Aβ42 oligomers) | Kd (Aβ42 fibrils; another trial, [Aβ42 fibrils] = 5 μM, PBS pH 7.4 (Fig. S5), read-out: Kd, Aβ42 fibrils, another trial) [nM] | Pearson's correlation coefficient R, colocalization with Congo Red [4] | selectivity to Aβ oligomers (times higher than that for Aβ fibrils) (Aβ42 oligomers; from Kd values fibrils vs oligomers) [times] | effect on Cu2+–Aβ42-induced toxicity (cell viability, in words) [1] | viability at 40 h [3] [%] | binding preference oligomers vs fibrils (from Kd values) (Aβ42 oligomers) | cytotoxicity (in words) [5]
1 | CN1CCNCCN(C)CC1 [Me2HTACN, 1,4-dimethyl-1,4,7-triazacyclononane, reference compound] |  |  |  |  |  |  |  |  | not able to alleviate the neurotoxicity |  |  | 
2 | CN1CCN(C)CCN(Cc2cc(/C=C/c3ccc(-c4ccc(C=O)cc4)s3)cc(CN3CCN(C)CCN(C)CC3)c2O)CC1 [ZY-15-DT] | 1270 | 2.9 | 1.16 ± 0.026 | 4550 | 1.2 |  |  |  |  |  |  | 
3 | CN1CCN(C)CCN(C)CC1 [Me3TACN, 1,4,7-trimethyl-1,4,7-triazacyclononane, reference compound] |  |  |  |  |  |  |  |  | not able to alleviate the neurotoxicity |  |  | 

Continued by falling Kd (Aβ42 fibrils; [6]), values first:

Row | Kd (Aβ42 fibrils; [6]) [nM] | binding ratio, Fibrils (Aβ42 fibrils; Aβ42 fibrils) | logD [2] | Kd (Aβ42 oligomers) [nM] | binding ratio, Oligomers (Aβ42 oligomers) | Kd (Aβ42 fibrils; another trial, [Aβ42 fibrils] = 5 μM, PBS pH 7.4 (Fig. S5), read-out: Kd, Aβ42 fibrils, another trial) [nM] | Pearson's correlation coefficient R, colocalization with Congo Red [4] | selectivity to Aβ oligomers (times higher than that for Aβ fibrils) (Aβ42 oligomers; from Kd values fibrils vs oligomers) [times] | Structure (SMILES) | effect on Cu2+–Aβ42-induced toxicity (cell viability, in words) [1] | viability at 40 h [3] [%] | binding preference oligomers vs fibrils (from Kd values) (Aβ42 oligomers) | cytotoxicity (in words) [5]
4 | 1820 | 2.1 | 0.997 ± 0.031 | 460 | 4.9 | 1430 | 0.84 | 3.9 | CN1CCN(C)CCN(Cc2cc(/C=C/c3ccc(-c4ccc(N(C)C)cc4)s3)ccc2O)CC1 [ZY-5-MT] |  | > 80 | higher binding affinity to oligomers over fibrils | 
5 | 1670 | 1.6 | 1.03 ± 0.122 | 2090 | 1.7 |  |  |  | CN1CCN(C)CCN(Cc2cc(/C=C/c3ccc(-c4ccc(N(C)C)cc4)s3)cc(CN3CCN(C)CCN(C)CC3)c2O)CC1 [ZY-5-DT] |  | > 80 |  | 
6 | 1380 | 3.5 | 1.13 ± 0.045 | 670 | 3.7 |  | 0.52 |  | CN1CCN(C)CCN(Cc2cc(-c3ccc(/C=C/c4ccc(N(C)C)cc4)s3)cc(CN3CCN(C)CCN(C)CC3)c2O)CC1 [ZY-12-DT] |  |  | higher binding affinity to oligomers over fibrils | higher cytotoxicity than others
7 | 940 | 5.5 | 0.81 ± 0.079 | 2080 | 2.0 |  |  |  | COc1cc(OC)cc(-c2ccc(/C=C/c3ccc(O)c(CN4CCN(C)CCN(C)CC4)c3)cc2)c1 [ZY-17-MT] |  | > 80 |  | 

— paper PMC9645390, “Amphiphilic stilbene derivatives attenuate the neurotoxicity of soluble Aβ42 oligomers by controlling their interactions with cell membranes” (Chemical Science, 2022)
